What was measured:
NCI-H460 [1] = test: Antiproliferative activity against human NCI-H460 cells harboring DOT1L R231Q mutant (unknown origin) (1 to 416 residues) assessed as inhibition of cell proliferation incubated for 72 hrs by CCK-8 assay; format: functional, cell-based; settings: NCI-H460, 72 h
NCI-H460 [2] = test: Antiproliferative activity against human NCI-H460 cells harboring wildtype DOT1L (unknown origin) (1 to 416 residues) assessed as inhibition of cell proliferation incubated for 72 hrs by CCK-8 assay; format: functional, cell-based; settings: NCI-H460, 72 h
NCI-H460 [3] = test: Antiproliferative activity against human NCI-H460 cells harboring DOT1L R231Q mutant assessed as inhibition of cell proliferation incubated for 72 hrs by CCK-8 assay; format: functional, cell-based; settings: NCI-H460, 72 h
NCI-H460 [4] = test: Antitumor activity against human NCI-H460 cells harboring DOT1L R231Q OE mutant xenografted in male BALB/c-nu mouse model assessed as tumor growth inhibition at 20 mg/kg, ip administered five times a week for 3 weeks relative to control; format: functional; settings: NCI-H460, 504 h, read-out: TGI

Compound	IC50 (NCI-H460 [1]) [µM]	IC50 (NCI-H460 [2]) [µM]	IC50 (NCI-H460 [3]) [µM]	inhibition in vivo at 20 mg/kg (NCI-H460 [4]) [%]
CN(CCCNC(=O)Nc1ccc(C(C)(C)C)cc1)CC1CCCN(c2cc(C#N)ccn2)C1 (stereo unspecified)	91.2	> 100	–	–
CC(C)(C)C(=O)Nc1ccc2[nH]c(CN3CCC(N(CCCN4CCOCC4)CC4CCCN(C(=O)c5cnccn5)C4)CC3)nc2c1 (stereo unspecified)	> 100	> 100	–	–
CC(C)(C)C(=O)Nc1ccc2[nH]c(CN3CCC(N(CCCN4CCOCC4)CC4CCCN(c5nc(Cl)nc6[nH]cnc56)C4)CC3)nc2c1 (stereo unspecified)	48.1	> 100	–	–
CC(C)N(CCCNC(=O)Nc1ccc(C(C)(C)C)cc1)CC1CCCN(C(=O)c2ccc[nH]c2=O)C1 (stereo unspecified)	81.2	75.7	–	–
CC(C)N(CCCNC(=O)Nc1ccc(C(C)(C)C)cc1)C[C@H]1O[C@@H](n2cc(Br)c3c(N)ncnc32)[C@H](O)[C@@H]1O	36	8.83	–	–
CN(CCCNC(=O)Nc1ccc(C(C)(C)C)cc1)CC1CCCN(C(=O)c2cnccn2)C1 (stereo unspecified)	> 100	> 100	–	–
CC(C)(C)c1ccc(NC(=O)NCCCN(CCCN2CCOCC2)CC2(O)CCN(c3nc(N)nc4[nH]cnc34)C2)cc1 (stereo unspecified)	29.6	> 100	–	–
CC(C)(C)c1ccc(NC(=O)NCCCN(CCCN2CCOCC2)CC2(O)CCN(c3ncnc4[nH]cnc34)C2)cc1 (stereo unspecified)	73.1	> 100	–	–
CC(C)(C)c1ccc(NC(=O)NCCCN(CCC(=O)N2CCOCC2)CC2(O)CCN(c3ncnc4[nH]cnc34)C2)cc1 (stereo unspecified)	95.5	> 100	–	–
CC(C)(C)C(=O)Nc1ccc2nc(CN3CCC(N(CCCN4CCOCC4)C[C@H]4O[C@@H](n5cnc6c(N)ncnc65)[C@H](O)[C@@H]4O)CC3)[nH]c2c1	–	–	6.18	54.4
CN(CCCNC(=O)Nc1ccc(C(C)(C)C)cc1)CC1CCCN(C(=O)c2ccc[nH]c2=O)C1 (stereo unspecified)	83.2	66.3	–	–
CC(C)(C)c1ccc(NC(=O)NCCCN(CCC(=O)N2CCSCC2)CC2(O)CCN(c3ncnc4[nH]cnc34)C2)cc1 (stereo unspecified)	89.6	> 100	–	–
CN(CCCNC(=O)Nc1ccc(C(C)(C)C)cc1)CC1CCCN(c2ncnc3[nH]cnc23)C1 (stereo unspecified)	64.3	68.6	–	–
CC(C)(C)C(=O)Nc1ccc2[nH]c(CN3CCC(N(CCCN4CCOCC4)CC4CCCN(c5nc(Cl)nc6[nH]ncc56)C4)CC3)nc2c1 (stereo unspecified)	52	> 100	–	–
CC(C)N(CCCNC(=O)Nc1ccc(C(C)(C)C)cc1)CC1CCCN(c2cc(C#N)ccn2)C1 (stereo unspecified)	> 100	> 100	–	–
CC(C)(C)C(=O)Nc1ccc2[nH]c(CN3CCC(N(CCCN4CCOCC4)CC4CCCN(c5ncnc6[nH]cnc56)C4)CC3)nc2c1 (stereo unspecified)	73.8	> 100	–	–
CC(C)(C)C(=O)Nc1ccc2[nH]c(CN3CCC(N(CCCN4CCOCC4)CC4CCCN(c5cc(C#N)ccn5)C4)CC3)nc2c1 (stereo unspecified)	85.5	> 100	–	–
CC(C)(C)c1ccc(NC(=O)NCCCN(CCCN2CCOCC2)CC2(O)CCN(c3ncnc4[nH]cc(Br)c34)C2)cc1 (stereo unspecified)	36.5	45.6	–	–

Continued, in another order:

IC50 (NCI-H460 [1]) [µM]	IC50 (NCI-H460 [2]) [µM]	IC50 (NCI-H460 [3]) [µM]	Compound	inhibition in vivo at 20 mg/kg (NCI-H460 [4]) [%]
38.4	53.9	–	CC(C)(C)c1ccc(NC(=O)NCCCN(CCC(=O)N2CCOCC2)CC2(O)CCN(c3nc(Cl)nc4[nH]cnc34)C2)cc1 (stereo unspecified)	–
38.7	21.8	–	CC(C)N(CCCNC(=O)Nc1ccc(C(C)(C)C)cc1)CC1CCCN(c2nc(Cl)nc3[nH]cnc23)C1 (stereo unspecified)	–
66.5	64.7	–	CC(C)N(CCCNC(=O)Nc1ccc(C(C)(C)C)cc1)CC1CCCN(c2ncnc3[nH]cnc23)C1 (stereo unspecified)	–
35.7	25.6	–	CC(C)N(CCCNC(=O)Nc1ccc(C(C)(C)C)cc1)CC1(O)CCN(c2nc(N)nc3[nH]cnc23)C1 (stereo unspecified)	–
7.15	18.9	–	CC(C)(C)c1ccc(NC(=O)NCCCN(CCCN2CCOCC2)CC2(O)CCN(c3nc(Cl)nc4[nH]ncc34)C2)cc1 (stereo unspecified)	–
21.8	8.51	–	CN(CCCNC(=O)Nc1ccc(C(C)(C)C)cc1)CC1(O)CCN(c2nc(Cl)nc3[nH]ncc23)C1 (stereo unspecified)	–
44.9	23.8	–	CN(CCCNC(=O)Nc1ccc(C(C)(C)C)cc1)CC1(O)CCN(c2nc(N)nc3[nH]cnc23)C1 (stereo unspecified)	–
40.6	38.7	–	CN(CCCNC(=O)Nc1ccc(C(C)(C)C)cc1)CC1(O)CCN(c2ncnc3[nH]cc(Br)c23)C1 (stereo unspecified)	–
28.4	61.7	–	COC(=O)CCN(CCCNC(=O)Nc1ccc(C(C)(C)C)cc1)CC1(O)CCN(c2nc(Cl)nc3[nH]ncc23)C1 (stereo unspecified)	–
52.6	31.2	–	CC(C)(C)c1ccc(NC(=O)NCCCN(CCO)CC2(O)CCN(c3nc(N)nc4[nH]cnc34)C2)cc1 (stereo unspecified)	–
17.6	6.46	–	CN(CCCNC(=O)Nc1ccc(C(C)(C)C)cc1)CC1(O)CCN(c2nc(Cl)nc3[nH]cnc23)C1 (stereo unspecified)	–
14.5	6.47	–	CC(C)N(CCCNC(=O)Nc1ccc(C(C)(C)C)cc1)CC1(O)CCN(c2nc(Cl)nc3[nH]ncc23)C1 (stereo unspecified)	–
25.6	17.6	–	CC(C)N(CCCNC(=O)Nc1ccc(C(C)(C)C)cc1)CC1(O)CCN(c2nc(Cl)nc3[nH]ccc23)C1 (stereo unspecified)	–
45.3	35.2	–	CC(C)N(CCCNC(=O)Nc1ccc(C(C)(C)C)cc1)CC1(O)CCN(c2ncnc3[nH]cc(Br)c23)C1 (stereo unspecified)	–
47.1	41.3	–	CC(C)(C)c1ccc(NC(=O)NCCCN(CCO)CC2(O)CCN(c3ncnc4[nH]cc(Br)c34)C2)cc1 (stereo unspecified)	–
13.8	5.33	–	CC(C)N(CCCNC(=O)Nc1ccc(C(C)(C)C)cc1)CC1(O)CCN(c2nc(Cl)nc3[nH]cnc23)C1 (stereo unspecified)	–
37.7	23.3	–	CN(CCCNC(=O)Nc1ccc(C(C)(C)C)cc1)CC1CCCN(c2nc(Cl)nc3[nH]cnc23)C1 (stereo unspecified)	–
30.9	72.6	–	COC(=O)CCN(CCCNC(=O)Nc1ccc(C(C)(C)C)cc1)CC1(O)CCN(c2nc(Cl)nc3[nH]cnc23)C1 (stereo unspecified)	–
16.2	44	–	CC(C)(C)c1ccc(NC(=O)NCCCN(CCC(=O)N2CCSCC2)CC2(O)CCN(c3nc(Cl)nc4[nH]ncc34)C2)cc1 (stereo unspecified)	–
9.59	31.4	–	CC(C)(C)c1ccc(NC(=O)NCCCN(CCCN2CCOCC2)CC2(O)CCN(c3nc(Cl)nc4[nH]cnc34)C2)cc1 (stereo unspecified)	–
23.2	64.5	–	CC(C)(C)c1ccc(NC(=O)NCCCN(CCC(=O)N2CCSCC2)CC2(O)CCN(c3nc(Cl)nc4[nH]cnc34)C2)cc1 (stereo unspecified)	–
> 100	> 100	–	COC(=O)CCN(CCCNC(=O)Nc1ccc(C(C)(C)C)cc1)CC1(O)CCN(c2ncnc3[nH]cnc23)C1 (stereo unspecified)	–
16	7.56	–	CC(C)N(CCCNC(=O)Nc1ccc(C(C)(C)C)cc1)CC1(O)CCN(c2nc(Cl)nc3sccc23)C1 (stereo unspecified)	–
50.8	27.7	–	CN(CCCNC(=O)Nc1ccc(C(C)(C)C)cc1)CC1(O)CCN(c2nc(Cl)nc3ccsc23)C1 (stereo unspecified)	–
83.9	54.4	–	CC(C)N(CCCNC(=O)Nc1ccc(C(C)(C)C)cc1)CC1(O)CCN(c2ncnc3[nH]ccc23)C1 (stereo unspecified)	–
